Where “and” joins values, the source holds several entries; their conditions need not be identical. Equal values may be shown once. Read-outs that look alike come from different tables or passages of the source.
Columns and labels:
[1] = tested on: HDMB03 (HDMBO3) group 3 medulloblastoma cells; test: CellTiter-Glo dose-response growth assay; format: cell-based; settings: Homo sapiens, HD-MB03; HDMBO3 G3MB cell growth; read-out: IC50 (nM) HDMBO3
Procedure: CellTiter-Glo assay was performed as per the manufacturer’s instructions, at the noted timepoint after compound treatment or plating. For Kelly, TE617T, RhJT, NCIH2122, NCIH650 and 143B, 500 cells were plated in normal growth media per well in a 384-well plate (Corning). HDMB03 and MB002 cells were plated in growth media at 500 cells/well in a 384-well plate. […] Cells were incubated for the noted timepoints prior to performing CellTiter-Glo assay as per the manufacturer’s instructions, and reading plates on an Envision 2104 microplate reader.

BRD4-BD1 (BRD4-1) = biological target: T1, BRD4-BD1 (BRD4-1) (Homo sapiens, UniProt O60885); test: Differential scanning fluorimetry (DSF) thermal shift; format: binding; settings: DSF
T1 construct: BRD4-BD1 (residues 44-168); 6xHis (cleaved yes); host or cells: E. coli BL21 (DE3) RIL
Procedure: (§1) At OD600 of 0.6, the culture was cooled down to 18 °C and induced with 0.1 mM IPTG. After 18 h growth, the culture was harvested by centrifugation at 6000 × g for 25 min and stored at -80 °C. Harvested cell pellets were re-suspended in 50 mM Na/K phosphate buffer (pH 7.4) containing 100 mM NaCl, 40 mM imidazole, 0.01% w/v lysozyme and 0.01% v/v Triton X-100 at 4 °C for 1 h, subjected to sonication and the lysate was clarified by centrifugation (30,000 × g for 45 min at 4 °C). Proteins were purified by FPLC at 4 °C using columns and chromatography materials from GE Healthcare. […] Proteins were purified to homogeneity by size exclusion chromatography using Superdex 75 equilibrated with elution buffer (50 mM HEPES pH 7.5, 100 mM NaCl, 2 mM DTT). All BRDs eluted as monomeric protein and were of crystallization grade quality (>95% purity as judged by SDS-PAGE). Pool fractions were combined, concentrated to 10–12 mg/ml, and aliquots were flash-frozen in liquid N2 and stored at −80 °C.
(§2) DSF experiments were performed with an Applied Biosystem StepOnePlus real-time PCR system (Thermo Fisher Scientific) using 96-well format plates, assayed in quadruplicate. For thermal shift determination, 5 μM protein was mixed with 100 μM compound in 50 mM HEPES, pH 7.5, 150 mM NaCl, 2 mM DTT, 2% DMSO, 5X SYPRO Orange (Thermo Fisher Scientific) in 20 μL reaction volumes. Reaction mixtures were heated from 25 to 95 °C at 1 °C/min with fluorescence readings every 0.5 °C at 610 nm. The observed thermal shift (ΔTm) was recorded as the difference between the Tm of sample and DMSO reference wells.

EP300 bromodomain = biological target: T2, EP300 bromodomain (Homo sapiens, UniProt Q09472); test: as above; format: binding; settings: DSF
T2 construct: 6xHis (cleaved yes); host or cells: E. coli BL21 (DE3) RIL
T2 sequence (Q09472 1048-1161): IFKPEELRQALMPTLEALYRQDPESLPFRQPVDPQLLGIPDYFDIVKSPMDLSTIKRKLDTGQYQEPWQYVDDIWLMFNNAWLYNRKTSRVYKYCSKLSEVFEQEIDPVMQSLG
Procedure: as §1, §2

CBP bromodomain [2] = biological target: T3, CBP bromodomain (Homo sapiens, UniProt Q92793); test: as above; format: binding
T3 construct: CBP (residues 1081-1197); 6xHis (cleaved yes); host or cells: E. coli BL21 (DE3) RIL
T3 sequence (Q92793 1081-1197): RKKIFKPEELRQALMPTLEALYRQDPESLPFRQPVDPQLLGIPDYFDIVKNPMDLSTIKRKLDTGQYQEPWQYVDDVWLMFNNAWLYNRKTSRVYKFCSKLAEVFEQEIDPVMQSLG
Procedure: as §1, with “After” for “At OD600 of 0.6, the culture was cooled down to 18 °C and induced with 0.1 mM IPTG. After”, “All BRDs eluted as monomeric protein and were of crystallization grade quality (>95% purity as judged by SDS-PAGE).” left out
(§3) DSF experiments were performed with an Applied Biosystem StepOnePlus real-time PCR system (Thermo Fisher Scientific) using 96-well format plates, assayed in quadruplicate. For thermal shift determination, 5 μM protein was mixed with 100 μM compound in 50 mM HEPES, pH 7.5, 150 mM NaCl, 2 mM DTT, 2% DMSO, 5X SYPRO Orange (Thermo Fisher Scientific) in 20 μL reaction volumes.

CBP bromodomain [3] = test: as above; format: binding; settings: ΔTm (CBP)/ΔTm(BRD4)
Procedure: as §1, with “After” for “At OD600 of 0.6, the culture was cooled down to 18 °C and induced with 0.1 mM IPTG. After”, “All BRDs eluted as monomeric protein and were of crystallization grade quality (>95% purity as judged by SDS-PAGE).” left out
as §3

[4] = biological target: GFP-tagged CBP bromodomain (Homo sapiens, UniProt Q92793); test: Microscale thermophoresis (MST); format: binding
Chain of GFP-tagged CBP bromodomain (Q92793 1085-1192 limits assumed): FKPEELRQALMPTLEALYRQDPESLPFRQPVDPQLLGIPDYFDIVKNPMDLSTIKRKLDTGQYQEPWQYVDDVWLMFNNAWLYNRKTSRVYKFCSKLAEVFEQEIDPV
Procedure: MST experiments were performed in a Monolith NT.115 Pico instrument (NanoTemper Technologies) following published procedures. […] MST traces were recorded using standard parameters: 5 s MST power off, 30 s MST power on and 5 s MST power off. Measurements were taken at -1-0 s (cold region) and 10 s (hot region) and data were analyzed using the NTAnalysis software.

[5] = 5 μM protein, 100 μM compound, three independent experiments, average ± SD

SMILES: COC1CCC(n2c(C3CCCC(=O)N3c3cc(C(F)(F)F)cc(C(F)(F)F)c3)nc3cc(-c4c(C)noc4C)ccc32)CC1 (stereo not drawn) [Compound 4]
- IC50 [1]: 271 ± 62 nM
- ∆Tm (°C) BRD4-1 (BRD4-BD1 (BRD4-1); [5]): 2.1 ± 0.96 °C
- ΔTm (°C) BRD4-BD1 (BRD4-BD1 (BRD4-1); Figure 3A, BRD4-BD1): 2.1 °C
- ∆Tm (°C) EP300 (EP300 bromodomain; [5]): 9.2 ± 1.5 °C
- ΔTm (°C) EP300 (EP300 bromodomain; Figure 3B, EP300): 9.2 °C
- ∆Tm (°C) CBP (CBP bromodomain [2]; DSF, 5 μM protein, 100 μM compound, three independent experiments, average ± SD): 9.9 ± 1.02 °C
- ΔTm (°C) CBP (CBP bromodomain [2]; Figure 3A, DSF, CBP bromodomain): 9.9 °C
- ΔTm (°C) CBP (CBP bromodomain [2]; Figure 3B, DSF, CBP): 9.9 °C
- DSF ΔTm (°C) (CBP bromodomain [2]; Figure 3C, DSF (values equal CBP column)): 9.9 °C
- Ratio CBP/BRD4 of ∆Tm (CBP bromodomain [3]): 4.7
- Kd ([4]; Figure 3C, MST, read-out: MST Kd): 116 nM
- Response (Dose Response Curve) ([4]; MST raw response, Dose 1.52588e-10, single replicate run, listed as iCBP-4): 892.093 and 891.258 and 891.615
- Response (Dose Response Curve (Outliers)) ([4]; MST raw response, Dose 3.05176e-10, point marked as outlier and left out of the fit): 895.82
- Response (Dose Response Curve) ([4]; MST raw response, Dose 3.05176e-10, single replicate run, listed as iCBP-4): 892.272 and 892.058
- Response (Dose Response Curve) ([4]; MST raw response, Dose 6.10352e-10, single replicate run, listed as iCBP-4): 892.269 and 892.744 and 892.22
- Response (Dose Response Curve) ([4]; MST raw response, Dose 1.2207e-9, single replicate run, listed as iCBP-4): 892.399 and 891.675 and 892.288
- Response (Dose Response Curve) ([4]; MST raw response, Dose 2.44141e-9, single replicate run, listed as iCBP-4): 891.725 and 891.585 and 891.994
- Response (Dose Response Curve) ([4]; MST raw response, Dose 4.88281e-9, single replicate run, listed as iCBP-4): 891.567 and 892.575 and 891.165
- Response (Dose Response Curve) ([4]; MST raw response, Dose 9.76563e-9, single replicate run, listed as iCBP-4): 891.493 and 891.567 and 891.238
- Response (Dose Response Curve) ([4]; MST raw response, Dose 1.95313e-8, single replicate run, listed as iCBP-4): 891.688 and 891.424 and 891.76
- Response (Dose Response Curve) ([4]; MST raw response, Dose 3.90625e-8, single replicate run, listed as iCBP-4): 892.161 and 891.262 and 889.541
- Response (Dose Response Curve) ([4]; MST raw response, Dose 7.8125e-8, single replicate run, listed as iCBP-4): 890.263 and 890.555 and 890.434
- Response (Dose Response Curve) ([4]; MST raw response, Dose 1.5625e-7, single replicate run, listed as iCBP-4): 890.147 and 890.553 and 889.395
- Response (Dose Response Curve) ([4]; MST raw response, Dose 3.125e-7, single replicate run, listed as iCBP-4): 888.926 and 888.984 and 889.107
- Response (Dose Response Curve) ([4]; MST raw response, Dose 6.25e-7, single replicate run, listed as iCBP-4): 888.767 and 888.447 and 889.182
- Response (Dose Response Curve) ([4]; MST raw response, Dose 1.25e-6, single replicate run, listed as iCBP-4): 887.998 and 889.672 and 887.288
- Response (Dose Response Curve) ([4]; MST raw response, Dose 2.5e-6, single replicate run, listed as iCBP-4): 887.993 and 886.376 and 888.472
- Response (Dose Response Curve) ([4]; MST raw response, Dose 5e-6, single replicate run, listed as iCBP-4): 887.809 and 888.569 and 888.97
- Kd ([4]; MST, single replicate run, target clGFP-CBPBRD, TargetConcentration 5e-8, MST-Power Medium, unit inferred, read-out: Kd (Fit Results, Fit Model: Kd)): 142 nM and 167 nM and 39.1 nM
- Bound (Fit Results) ([4]; fitted MST response of bound state, single replicate run, target clGFP-CBPBRD 5e-8, listed as iCBP-4): 887.684 and 887.776 and 888.434
- Unbound (Fit Results) ([4]; fitted MST response of unbound state, single replicate run, target clGFP-CBPBRD 5e-8, listed as iCBP-4): 892.098 and 891.946 and 891.879
- loss of binding affinity (CBP) ([4]; relative to CCS1477): ~ 40 fold
- Kd ([4]; three independent MST experiments, average ± SD, read-out: Kd (nM) CBP): 116 ± 68 nM
